For 39 compounds, IC50 results are on record in ChEMBL document CHEMBL5370557, “Structure-based discovery of IHMT-IDH1-053 as a potent irreversible IDH1 mutant selective inhibitor” (Eur J Med Chem, 2023).

Assay [1] deals with T1, Isocitrate dehydrogenase [NADP] cytoplasmic (Homo sapiens, UniProt O75874, R132H). As to the kind of experiment: Inhibition of IDH1 R132H mutant (unknown origin) expressed in Escherichia coli BL21 (DE3) assessed as NADPH consumption using alpha-KG as substrate measured after 60 mins.
The target of assay [2] is T1, Isocitrate dehydrogenase [NADP] cytoplasmic. As to the kind of experiment: Inhibition of IDH1 R132H mutant (unknown origin) expressed in HEK293T cells assessed as inhibition of 2-HG generation measured after 48 hrs by LC-MS/MS analysis. The class given is cell-based.
The target in assay [3] is T2, Isocitrate dehydrogenase [NADP], mitochondrial (Homo sapiens, UniProt P48735).
T2 sequence (P48735 whole entry): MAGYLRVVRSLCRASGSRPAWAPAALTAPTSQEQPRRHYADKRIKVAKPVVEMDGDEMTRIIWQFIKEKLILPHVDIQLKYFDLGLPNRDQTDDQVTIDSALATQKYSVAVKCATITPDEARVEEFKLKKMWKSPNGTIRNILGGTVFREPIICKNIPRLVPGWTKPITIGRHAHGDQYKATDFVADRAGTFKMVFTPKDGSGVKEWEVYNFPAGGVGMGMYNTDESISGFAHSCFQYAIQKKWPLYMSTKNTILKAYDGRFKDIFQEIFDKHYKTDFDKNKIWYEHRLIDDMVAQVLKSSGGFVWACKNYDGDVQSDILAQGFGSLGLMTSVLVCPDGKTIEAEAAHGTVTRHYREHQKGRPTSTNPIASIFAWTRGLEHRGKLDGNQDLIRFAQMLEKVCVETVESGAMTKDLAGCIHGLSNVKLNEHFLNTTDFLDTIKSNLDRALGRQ
As to the kind of experiment: Inhibition of wild type IDH2 (unknown origin) expressed in Escherichia coli BL21 (DE3) assessed as NADPH consumption using alpha-KG as substrate measured after 60 mins.

For assay [4], the target named is Isocitrate dehydrogenase [NADP], mitochondrial (Homo sapiens, UniProt P48735, R172K). Put plainly: Inhibition of IDH2 R172K mutant (unknown origin) expressed in Escherichia coli BL21 (DE3) assessed as NADPH consumption using alpha-KG as substrate measured after 60 mins.
Assay [5] deals with Isocitrate dehydrogenase [NADP], mitochondrial (Homo sapiens, UniProt P48735, R140Q). Put plainly: Inhibition of IDH2 R140Q mutant (unknown origin) expressed in Escherichia coli BL21 (DE3) assessed as NADPH consumption using alpha-KG as substrate measured after 60 mins.
Sequence of Isocitrate dehydrogenase [NADP], mitochondrial (Homo sapiens, UniProt P48735, R140Q) (P48735 40-452 R140Q limits assumed): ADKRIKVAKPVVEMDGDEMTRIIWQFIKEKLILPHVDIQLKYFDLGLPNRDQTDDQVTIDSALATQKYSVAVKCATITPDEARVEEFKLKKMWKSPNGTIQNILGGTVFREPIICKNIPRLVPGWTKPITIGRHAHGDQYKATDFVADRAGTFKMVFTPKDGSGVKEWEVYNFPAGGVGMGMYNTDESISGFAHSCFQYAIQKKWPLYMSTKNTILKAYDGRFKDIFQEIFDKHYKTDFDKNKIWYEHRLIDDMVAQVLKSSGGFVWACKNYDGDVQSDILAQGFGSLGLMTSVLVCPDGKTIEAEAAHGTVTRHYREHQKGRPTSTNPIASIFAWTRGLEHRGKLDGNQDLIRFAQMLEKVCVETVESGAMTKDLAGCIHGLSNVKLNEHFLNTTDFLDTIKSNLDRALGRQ

T1 sequence (O75874 2-414 R132H limits assumed): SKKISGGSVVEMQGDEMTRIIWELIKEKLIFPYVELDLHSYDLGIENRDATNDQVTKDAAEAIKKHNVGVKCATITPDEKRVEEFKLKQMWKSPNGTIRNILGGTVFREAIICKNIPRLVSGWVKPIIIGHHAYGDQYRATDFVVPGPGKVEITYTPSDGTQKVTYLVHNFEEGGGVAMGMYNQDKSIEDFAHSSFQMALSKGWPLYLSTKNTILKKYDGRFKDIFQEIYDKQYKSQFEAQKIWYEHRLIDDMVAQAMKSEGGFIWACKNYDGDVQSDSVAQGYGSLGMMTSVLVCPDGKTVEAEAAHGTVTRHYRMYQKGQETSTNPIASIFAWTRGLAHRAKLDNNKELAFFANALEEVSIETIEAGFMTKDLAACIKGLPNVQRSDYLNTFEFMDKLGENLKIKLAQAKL
Sequence of Isocitrate dehydrogenase [NADP], mitochondrial (Homo sapiens, UniProt P48735, R172K) (P48735 40-452 R172K limits assumed): as the sequence (P48735 40-452 R140Q limits assumed) above, with Q101R, R133K counted along it

Usually IC50 stands for the point on the concentration scale where inhibition reaches its midpoint. Regarding `C=CC(=O)Nc1cc(-c2ccc([C@H](C)Nc3ncc(F)c(N4C(=O)OC[C@@H]4C(C)C)n3)cc2)ccc1N(C)C`, the IC50 in assay [1] came out at 630 nM.

With `CC(C)[C@H]1COC(=O)N1c1nc(N[C@@H](C)c2ccc(Nc3ccc(NC(=O)CCl)c(N4CCOCC4)c3)cc2)ncc1F`, the IC50 is 10000 nM in assay [2] and greater than 10000 nM in assay [1].

With `C=CS(=O)(=O)NC1CCN(c2ccc([C@H](C)Nc3nccc(N4C(=O)OC[C@@H]4C(C)C)n3)cc2)CC1`, the IC50 in assay [2] amounted to 37 nM; in assay [1], 192 nM.

With `C=CS(=O)(=O)Nc1ccc(Nc2ccc([C@H](C)Nc3ncc(F)c(N4C(=O)OC[C@@H]4C(C)C)n3)cc2)cc1OC`, the figures for the IC50 in assay [2] and in assay [1] were 4750 nM and 55 nM, respectively.

`CCS(=O)(=O)N1CCC(Nc2ccc([C@H](C)Nc3nccc(N4C(=O)OC[C@@H]4C(C)C)n3)cc2)CC1`: in assay [1], the IC50 was 594 nM.

Turning to `CCC(=O)Nc1cc(-c2ccc([C@H](C)Nc3ncc(F)c(N4C(=O)OC[C@@H]4C(C)C)n3)cc2)ccc1N(C)C`, the IC50 in assay [1] amounted to 741 nM.

On to `C=CS(=O)(=O)N1CCC(Nc2ccc([C@H](C)Nc3nccc(N4C(=O)OC[C@@H]4C(C)C)n3)cc2)CC1`, for which the IC50 worked out at 171 nM in assay [2] and 161 nM in assay [1].

On to `CCC(=O)Nc1ccc(Nc2ccc([C@H](C)Nc3nccc(N4C(=O)OC[C@@H]4C(C)C)n3)cc2)cc1N1CCN(CC)CC1`, for which the IC50 in assay [1] worked out at 2760 nM.

`C=CS(=O)(=O)Nc1ccc(Nc2ccc([C@H](C)Nc3nccc(N4C(=O)OC[C@@H]4C(C)C)n3)cc2)cc1N1CCN(CC)CC1`: the IC50 in assay [1] turned out to be 547 nM.

Consider `CCS(=O)(=O)NC1CCN(c2ccc([C@H](C)Nc3ncc(F)c(N4C(=O)OC[C@@H]4C(C)C)n3)cc2)CC1`, for which the IC50 in assay [2] came to 1470 nM; in assay [1], 143 nM.

On to `C=CS(=O)(=O)Nc1ccc(Nc2ccc([C@H](C)Nc3ncc(F)c(N4C(=O)OC[C@@H]4C(C)C)n3)cc2)cc1N1CCOCC1`, for which the IC50 in assay [2] was determined as 1500 nM; in assay [1], 87 nM.

For the compound `CCS(=O)(=O)Nc1ccc(Nc2ccc([C@H](C)Nc3ccc(C#N)cn3)cc2)cc1N(C)C`, the IC50 in assay [1] stood at 2770 nM.

As for `CC(C)[C@H]1COC(=O)N1c1nc(N[C@@H](C)c2ccc(N3CCCC(NC(=O)CCl)C3)cc2)ncc1F` (stereo partly specified), the IC50 in assay [1] came out at 516 nM.

In the case of `CCC(=O)Nc1ccc(Nc2ccc([C@H](C)Nc3ncc(F)c(N4C(=O)OC[C@@H]4C(C)C)n3)cc2)cc1N1CCOCC1`, the values for the IC50 in assay [2] and in assay [1] were 10000 nM and greater than 10000 nM, respectively.

With `N#Cc1ccnc(N2C(=O)CC[C@H]2C(=O)N(c2cncc(F)c2)[C@H](C(=O)NC2CC(F)(F)C2)c2ccccc2Cl)c1` [IVOSIDENIB], the IC50 in assay [3], in assay [4] and in assay [5] was greater than 10000 nM in each case.

Consider `CCS(=O)(=O)NC1CCN(c2ccc([C@H](C)Nc3nccc(N4C(=O)OC[C@@H]4C(C)C)n3)cc2)CC1`, for which, in assay [1], the IC50 amounted to 541 nM.

Regarding `C=CC(=O)Nc1ccc(Nc2ccc([C@H](C)Nc3ncc(F)c(N4C(=O)OC[C@@H]4C(C)C)n3)cc2)cc1N1CCOCC1`, the IC50 amounted to 331 nM in assay [2] and 976 nM in assay [1].

Consider `C=CS(=O)(=O)Nc1ccc(Nc2ccc([C@H](C)Nc3ncc(F)c(N4C(=O)OC[C@@H]4C(C)C)n3)cc2)cc1N1CCN(CC)CC1`, for which the IC50 in assay [2] amounted to 864 nM; in assay [1], 245 nM.

Turning to `C=CS(=O)(=O)Nc1ccc(Nc2ccc([C@H](C)Nc3ncc(F)c(N4C(=O)OC[C@@H]4C(C)C)n3)cc2)cc1F`, the IC50 in assay [2] came out at 45 nM; in assay [1] it was 5.9 nM.

Turning to `C=CS(=O)(=O)Nc1cc(Nc2ccc([C@H](C)Nc3ncc(F)c(N4C(=O)OC[C@@H]4C(C)C)n3)cc2)ccc1N(C)C`, the figures for the IC50 in assay [2] and in assay [1] were 367 nM and 151 nM, respectively.

As for `C=CC(=O)Nc1cc(Nc2ccc([C@H](C)Nc3ncc(F)c(N4C(=O)OC[C@@H]4C(C)C)n3)cc2)ccc1N(C)C`, the IC50 came to 114 nM in assay [2] and 155 nM in assay [1].

Turning to `CCC(=O)Nc1cc(Nc2ccc([C@H](C)Nc3ncc(F)c(N4C(=O)OC[C@@H]4C(C)C)n3)cc2)ccc1N1CCOCC1`, the IC50 turned out to be 126 nM in assay [2] and 77 nM in assay [1].

Regarding `C=CS(=O)(=O)N1CCC(Nc2ccc([C@H](C)Nc3ncc(F)c(N4C(=O)OC[C@@H]4C(C)C)n3)cc2)CC1`, the IC50 came out at 129 nM in assay [2] and 42 nM in assay [1].

As to `CC(C)[C@H]1COC(=O)N1c1nc(N[C@@H](C)c2ccc(N3CCC(NC(=O)CCl)CC3)cc2)ncc1F`, the IC50 in assay [1] amounted to 87 nM.

Consider `C=CS(=O)(=O)NC1CCN(c2ccc([C@H](C)Nc3ncc(C#N)cn3)cc2)CC1`, for which the IC50 in assay [1] came out at 4490 nM.

Consider `C=CC(=O)Nc1ccc(Nc2ccc([C@H](C)Nc3ccc(C#N)cn3)cc2)cc1N(C)C`, for which the IC50 in assay [1] turned out to be 6130 nM.

With `C=CC(=O)Nc1cc(Nc2ccc([C@H](C)Nc3ncc(F)c(N4C(=O)OC[C@@H]4C(C)C)n3)cc2)ccc1N1CCOCC1`, the IC50 came out at 288 nM in assay [2] and 205 nM in assay [1].

On to `CCC(=O)NC1CCN(c2ccc([C@H](C)Nc3ncc(F)c(N4C(=O)OC[C@@H]4C(C)C)n3)cc2)CC1`, for which the IC50 in assay [1] was found to be 198 nM.

Turning to `C=CS(=O)(=O)NC1CCCN(c2ccc([C@H](C)Nc3ncc(F)c(N4C(=O)OC[C@@H]4C(C)C)n3)cc2)C1` (stereo partly specified), the IC50 in assay [2] worked out at 214 nM; in assay [1], 119 nM.

`C=CS(=O)(=O)Nc1ccc(Nc2ccc([C@H](C)Nc3ncc(F)c(N4C(=O)OC[C@@H]4C(C)C)n3)cc2)cc1N(C)C`: the IC50 in assay [2] was determined as 1250 nM; in assay [1], 48 nM.

Regarding `C=CS(=O)(=O)Nc1ccc(Nc2ccc([C@H](C)Nc3ncc(F)c(N4C(=O)OC[C@@H]4C(C)C)n3)cc2)cc1C`, the results for the IC50 in assay [2] and in assay [1] were 866 nM and 88 nM, respectively.

As to `C=CC(=O)NC1CCN(c2ccc([C@H](C)Nc3ncc(F)c(N4C(=O)OC[C@@H]4C(C)C)n3)cc2)CC1`, the IC50 in assay [2] came out at 462 nM; in assay [1] it was 187 nM.

For `C=CC(=O)Nc1ccc(Nc2ccc([C@H](C)Nc3nccc(N4C(=O)OC[C@@H]4C(C)C)n3)cc2)cc1N1CCN(CC)CC1`, the IC50 in assay [1] was determined as 898 nM.

On to `CCC(=O)NC1CCCN(c2ccc([C@H](C)Nc3ncc(F)c(N4C(=O)OC[C@@H]4C(C)C)n3)cc2)C1` (stereo partly specified), for which the IC50 in assay [1] is 670 nM.

With `C=CC(=O)NC1CCN(c2ccc([C@H](C)Nc3nccc(N4C(=O)OC[C@@H]4C(C)C)n3)cc2)CC1`, the IC50 in assay [1] was found to be 6510 nM.

In the case of `C=CS(=O)(=O)Nc1ccc(Nc2ccc([C@H](C)Nc3ccc(C#N)cn3)cc2)cc1N(C)C`, the IC50 in assay [1] is 6320 nM.

In the case of `C=CC(=O)NC1CCCN(c2ccc([C@H](C)Nc3ncc(F)c(N4C(=O)OC[C@@H]4C(C)C)n3)cc2)C1` (stereo partly specified), the IC50 in assay [2] was determined as 295 nM; in assay [1], 440 nM.

Consider `CCS(=O)(=O)NC1CCN(c2ccc([C@H](C)Nc3ncc(C#N)cn3)cc2)CC1`, for which, in assay [1], the IC50 amounted to 3490 nM.

As to `CCC(=O)Nc1cc(Nc2ccc([C@H](C)Nc3ncc(F)c(N4C(=O)OC[C@@H]4C(C)C)n3)cc2)ccc1N(C)C`, the half-maximal inhibitory concentration (IC50) in assay [1] turned out to be 932 nM.
